Data on nine substances can be found in patent US20260325605A1, “INHIBITORS” (Zealand Pharma A/S, priority 2022, published 2026).

Assay [1] deals with T-cell activation in rat whole blood. Description: Example 4: IL-17A release in thapsigargin stimulated rat whole blood. The settings on record: 24 Hr, at least 2 replicates, unit inferred, read-out: IC50 (inhibition of IL-17A release). Type of assay: cell-based, rat (Lewis or Sprague-Dawley). The source says:
Rat whole blood was used to assess the potency of Kv1.3 inhibitor peptides on T-cell activation as determined by IL-17A release after stimulation with thapsigargin. Addition of thapsigargin results in activation of a signalling cascade ending up in activation of T cell proliferation and cytokine production where the Kv1.3 ion channel plays a key role, so activity of Kv1.3 inhibitors in primary cells can be measured in this experimental system.
Rat whole blood was obtained from healthy, naïve Lewis or Sprague-Dawley rats that were terminally bleed from the heart using Sodium Heparin blood sampling tubes for collection. Peptides were diluted to 4× final testing concentrations in assay buffer (DMEM+GlutaMAX), GlutaMAX is a medium comprising 3.97 mM L-alanine-L-glutamine (Gibco Cat #61965026) supplemented with 25 mM HEPES buffer, 1 mM Sodium Pyruvate, 100 units/ml Penicillin, 100 μg/ml Streptomycin and 0.05% Casein from bovine milk (Sigma-Aldrich)) and 25 μl was added to wells of a 96 well plate. Then 50 μl whole rat blood was added and incubated for minimum 5 minutes at room temperature to allow compound binding. Then 25 μl 40 μM thapsigargin diluted in assay buffer was added to all wells of the assay plates to activate the cells, followed by incubation for 24 Hr at 37° C./5% CO2 in a humidified box. The assay plates were centrifuged for 10 min at 300 g at 4° C. and the supernatants were transferred to new plates. The concentrations of IL-17A released to the supernatants were measured using a Rat IL-17A ELISA Kit (Abcam Cat #ab214028) as recommended by the manufacturer. Samples were diluted 2.5-fold by transferring 20 μl of the supernatants to wells on ELISA plates containing 30 μl buffer 75BS from the detection kit.
Data from peptides eliciting an inhibition of IL-17A were normalised relative to full thapsigargin activation (no inhibitor added) and no activation controls (addition of assay buffer instead of thapsigargin) to calculate the IC50 from the concentration response curve.
Results are shown in Table 5, expressed as IC50, with standard deviation (IC50_SD). All values are derived from at least 2 replicates. The biological effects ex vivo show a correlation with the potency of the peptides.

Another assay has as its target T1, Kv1.2 (Homo sapiens, UniProt P16389).
T1 construct: expressed in transfected cells
Put plainly: Patch clamp assay (QPatch), Kv1.2. In kind it is cell-based. The note with it: for IC50: QPatch, CHO cells stably expressing human Kv1.2, read-out: Potency IC50, Kv1.2; for Selectivity Kv1.2/Kv1.3: ratio of IC50 Kv1.2/Kv1.3. Background: The patch-clamp technique gives a direct electrical read-out from membranes.

The next assay has as its target T2, Kv1.1 (Homo sapiens, UniProt Q09470).
T2 construct: expressed in transfected cells
Description: Patch clamp assay (QPatch), Kv1.1. Type of assay: cell-based. The note with it: for IC50: QPatch, CHO cells stably expressing human Kv1.1, read-out: Potency IC50, Kv1.1; for Selectivity Kv1.1/Kv1.3: ratio of IC50 Kv1.1/Kv1.3.

The target in the next assay is T3, Kv1.3 (Homo sapiens, UniProt P22001).
T3 construct: expressed in transfected cells
Put plainly: Patch clamp assay (QPatch), Kv1.3. The note with it: CHO cells stably expressing human Kv1.3, read-out: Potency IC50, Kv1.3. Type of assay: cell-based.

In a further assay the target is T4, Kv1.6 (Homo sapiens, UniProt P17658).
T4 construct: expressed in transfected cells
Put plainly: Patch clamp assay (QPatch), Kv1.6. In kind it is cell-based. The note with it: for IC50: QPatch, CHO cells stably expressing human Kv1.6, read-out: Potency IC50, Kv1.6; for Selectivity Kv1.6/Kv1.3: ratio of IC50 Kv1.6/Kv1.3.

Where only a bound is given, the exact number is not on record here.

T4 sequence (P17658 whole entry): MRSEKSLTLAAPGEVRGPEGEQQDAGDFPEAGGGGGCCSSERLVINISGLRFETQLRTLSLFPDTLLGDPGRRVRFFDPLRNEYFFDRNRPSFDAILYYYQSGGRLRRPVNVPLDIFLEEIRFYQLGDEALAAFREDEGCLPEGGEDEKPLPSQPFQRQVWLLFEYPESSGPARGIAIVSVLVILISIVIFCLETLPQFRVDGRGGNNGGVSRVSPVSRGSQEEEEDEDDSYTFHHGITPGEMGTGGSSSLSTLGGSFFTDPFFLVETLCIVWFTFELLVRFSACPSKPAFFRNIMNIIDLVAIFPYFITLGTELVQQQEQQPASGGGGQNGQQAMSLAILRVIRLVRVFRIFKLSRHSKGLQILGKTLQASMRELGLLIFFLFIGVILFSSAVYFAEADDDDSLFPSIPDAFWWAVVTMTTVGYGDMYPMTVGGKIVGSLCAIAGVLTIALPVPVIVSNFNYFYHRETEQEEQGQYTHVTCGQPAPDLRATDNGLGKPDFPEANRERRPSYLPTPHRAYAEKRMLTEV
T2 sequence (Q09470 whole entry): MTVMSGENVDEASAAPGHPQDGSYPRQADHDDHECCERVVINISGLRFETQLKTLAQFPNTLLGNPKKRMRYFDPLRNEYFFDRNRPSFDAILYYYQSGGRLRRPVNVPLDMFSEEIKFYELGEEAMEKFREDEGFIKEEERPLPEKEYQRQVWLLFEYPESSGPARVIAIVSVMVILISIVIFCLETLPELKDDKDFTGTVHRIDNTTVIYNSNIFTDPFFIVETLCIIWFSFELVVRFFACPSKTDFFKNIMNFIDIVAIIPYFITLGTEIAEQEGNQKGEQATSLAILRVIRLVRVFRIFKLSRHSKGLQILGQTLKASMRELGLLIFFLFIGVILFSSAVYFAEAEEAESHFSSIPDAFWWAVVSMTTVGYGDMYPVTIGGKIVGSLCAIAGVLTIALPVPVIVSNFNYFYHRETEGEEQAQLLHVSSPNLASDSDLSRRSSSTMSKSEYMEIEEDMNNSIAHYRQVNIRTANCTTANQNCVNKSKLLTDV
T3 sequence (P22001 whole entry): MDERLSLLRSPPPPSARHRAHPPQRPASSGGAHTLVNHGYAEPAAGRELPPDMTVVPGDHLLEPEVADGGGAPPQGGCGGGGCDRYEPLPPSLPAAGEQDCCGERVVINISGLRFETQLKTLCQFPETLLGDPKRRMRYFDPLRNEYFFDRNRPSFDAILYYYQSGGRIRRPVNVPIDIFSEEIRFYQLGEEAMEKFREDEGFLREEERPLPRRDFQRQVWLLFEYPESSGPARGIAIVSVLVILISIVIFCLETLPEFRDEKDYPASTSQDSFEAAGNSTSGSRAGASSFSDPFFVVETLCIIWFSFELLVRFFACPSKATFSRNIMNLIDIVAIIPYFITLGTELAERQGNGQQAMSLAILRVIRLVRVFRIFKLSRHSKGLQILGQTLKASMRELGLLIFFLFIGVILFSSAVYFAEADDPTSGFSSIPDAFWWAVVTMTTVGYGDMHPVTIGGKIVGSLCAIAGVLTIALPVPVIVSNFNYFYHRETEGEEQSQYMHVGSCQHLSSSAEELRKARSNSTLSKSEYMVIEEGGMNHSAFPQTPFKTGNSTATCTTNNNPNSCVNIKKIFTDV
T1 sequence (P16389 whole entry): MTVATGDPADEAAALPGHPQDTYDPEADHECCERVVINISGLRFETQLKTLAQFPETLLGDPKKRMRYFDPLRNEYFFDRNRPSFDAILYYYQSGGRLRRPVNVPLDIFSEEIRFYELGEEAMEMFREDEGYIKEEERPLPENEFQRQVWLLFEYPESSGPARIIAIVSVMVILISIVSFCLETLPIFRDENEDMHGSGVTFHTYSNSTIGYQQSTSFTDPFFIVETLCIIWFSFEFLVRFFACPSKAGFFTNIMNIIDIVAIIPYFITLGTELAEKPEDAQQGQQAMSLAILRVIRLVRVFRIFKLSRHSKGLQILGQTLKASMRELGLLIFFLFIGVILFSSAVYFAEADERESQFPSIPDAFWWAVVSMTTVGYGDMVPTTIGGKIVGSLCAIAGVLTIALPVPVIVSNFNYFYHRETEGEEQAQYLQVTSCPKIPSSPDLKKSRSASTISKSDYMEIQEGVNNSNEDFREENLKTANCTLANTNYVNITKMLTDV
Description for Kv1.1: (§1) Selectivity of Kv1.3 inhibitor peptides for Kv1.3 over other potassium ion channels (Kv1.1, Kv1.2 and Kv1.6) was determined using patch clamp assay.
(§2) Chinese Hamster Ovary (CHO) cell lines stably expressing exogenous human α-subunits of each potassium ion channel were grown and passaged under standard culture conditions.
(§3) The automated, chip-based planar patch clamp device QPatch® was used to quantitate the ionic currents. All recordings were made in the conventional whole-cell configuration after establishment of gigaohm seals. […] During experiments 0.1% (v/v) BSA was included as a vehicle in all external recording solutions. Currents were elicited from a holding potential of −80 mV using a voltage protocol, which shifted the voltage to 30 mV for 500 ms every 15 s.
(§4) Concentration-response relationships were established by cumulatively applying seven escalating concentrations of test sample to an individual cell with a recording period of 2 min per compound application.
(§5) The efficacy was determined as the mean charge for the last three sweeps at the end of each concentration application period from the cursor positions. The percent inhibition for each test dose application period was calculated as the reduction in mean cursor value (charge) relative to the cursor value measured at the end of the vehicle period and used to calculate the IC50 from the concentration response curve.
Description for Kv1.3: as §1, §2, §3, §4, §5

“H-NMDMRC(1)SASVEC(2)KQKC(3)LKAIRSIFGKC(1)MNKKC(2)KC(3)YPR-NH2 [Peptide 22]”: the concentration for half-maximal inhibition (IC50) was 0.82 nM in assay [1]; 57 nM at Kv1.2; over 3000 nM at Kv1.1; 0.22 nM at Kv1.3; 626 nM at Kv1.6. The “Selectivity Kv1.2/Kv1.3” value at Kv1.2 worked out at 259. In addition, the “Selectivity Kv1.1/Kv1.3” value on Kv1.1 is recorded as over 13700. For the same substance, at Kv1.6, the “Selectivity Kv1.6/Kv1.3” value came out at 2851.

Turning to “H-NMDMRC(1)SASVEC(2)KQLC(3)LKAIGSIFGKC(1)MNKKC(2)KC(3)YPR-NH2 [Peptide 19]”, the 50% inhibitory concentration (IC50) was 3.2 nM in assay [1]; 256 nM on Kv1.2; over 3000 nM on Kv1.1; 0.24 nM on Kv1.3; over 3000 nM at Kv1.6. Moreover, the “Selectivity Kv1.2/Kv1.3” value at Kv1.2 was 1080. For the same substance, at Kv1.1, the “Selectivity Kv1.1/Kv1.3” value was over 12700. In addition, the “Selectivity Kv1.6/Kv1.3” value at Kv1.6 is given as over 12700.

For the substance “H-NMDMRC(1)SASVEC(2)LQKC(3)LKAIGSIFGKC(1)MNKKC(2)KC(3)YPR-NH2 [Peptide 30]”, the IC50 in assay [1] was 0.76 nM; at Kv1.2 it was 874 nM; at Kv1.1, over 3000 nM; at Kv1.3 it was 0.4 nM; on Kv1.6, over 3000 nM. Further, the “Selectivity Kv1.2/Kv1.3” value at Kv1.2 came to 2163. The “Selectivity Kv1.1/Kv1.3” value at Kv1.1 is over 7400. Also, the “Selectivity Kv1.6/Kv1.3” value at Kv1.6 is over 7400.

For the substance “H-NMDMRC(1)SASVQC(2)KQKC(3)LKAIGSIFGKC(1)MNKKC(2)KC(3)YPR-NH2 [Peptide 29]”, the half-inhibitory concentration (IC50) in assay [1] is 0.53 nM; at Kv1.2, 16 nM; on Kv1.1 it was over 3000 nM; at Kv1.3 it was 0.2 nM; at Kv1.6 it was 252 nM. In addition, the “Selectivity Kv1.2/Kv1.3” value on Kv1.2 is listed as 83. Besides, the “Selectivity Kv1.1/Kv1.3” value on Kv1.1 was over 15200. Besides, on Kv1.6, the “Selectivity Kv1.6/Kv1.3” value came to 1272.

Turning to “H-NMDMRC(1)SISVEC(2)KQKC(3)LKAIGSIFGKC(1)MNKKC(2)KC(3)YPR-NH2 [Peptide 27]”, the concentration for half-maximal inhibition (IC50) in assay [1] was 0.61 nM; at Kv1.2, 43 nM; at Kv1.1, over 3000 nM; at Kv1.3, 0.26 nM; at Kv1.6 it was over 3000 nM. Besides, the “Selectivity Kv1.2/Kv1.3” value on Kv1.2 was 169. Besides, the “Selectivity Kv1.1/Kv1.3” value on Kv1.1 is reported as over 11800. For the same substance, the “Selectivity Kv1.6/Kv1.3” value at Kv1.6 is recorded as over 11800.

Take “H-N[Nle]D[Nle]RC(1)RASVEC(2)KQKC(3)LKAIGSIFGKC(1)[Nle]NKKC(2)KC(3)YPR-NH2 [Peptide 43]”: the half-inhibitory concentration (IC50) was 0.91 nM in assay [1]; 109 nM at Kv1.2; over 3000 nM at Kv1.1; 0.16 nM at Kv1.3; 316 nM on Kv1.6. Besides, the “Selectivity Kv1.2/Kv1.3” value on Kv1.2 stood at 674. Besides, on Kv1.1, the “Selectivity Kv1.1/Kv1.3” value is over 18600. Further, on Kv1.6, the “Selectivity Kv1.6/Kv1.3” value turned out to be 1954.

Turning to “H-N[Nle]D[Nle]RC(1)SASKEC(2)KQKC(3)LKAIGSIFGKC(1)[Nle]NKKC(2)KC(3)YPR-NH2 [Peptide 64]”, the IC50 in assay [1] was 0.68 nM; at Kv1.2, 184 nM; on Kv1.1, over 3000 nM; at Kv1.3 it was 0.31 nM; at Kv1.6, 1230 nM. On Kv1.2, the “Selectivity Kv1.2/Kv1.3” value is given as 587. Also, on Kv1.1, the “Selectivity Kv1.1/Kv1.3” value is reported as over 9600. Further, the “Selectivity Kv1.6/Kv1.3” value at Kv1.6 is on record as 3929.

For the substance “H-N[Nle]D[Nle]RC(1)SASVEC(2)KKKC(3)LKAIGSIFGKC(1)[Nle]NKKC(2)KC(3)YPR-NH2 [Peptide 46]”, the IC50 in assay [1] was 1.4 nM; on Kv1.2 it was 257 nM; at Kv1.1, over 3000 nM; at Kv1.3 it was 0.75 nM; at Kv1.6 it was over 3000 nM. The “Selectivity Kv1.2/Kv1.3” value at Kv1.2 came to 343. The “Selectivity Kv1.1/Kv1.3” value at Kv1.1 was over 4000. For the same substance, on Kv1.6, the “Selectivity Kv1.6/Kv1.3” value was over 4000.

“H-N[Nle]D[Nle]RC(1)SASVEC(2)KQKC(3)KAIGSIFGKC(1)[Nle]NKKC(2)KC(3)YPR-NH2 [Peptide 50]”: the IC50 in assay [1] was 1 nM; on Kv1.2, 164 nM; on Kv1.1, over 3000 nM; at Kv1.3 it was 1.34 nM; on Kv1.6, 946 nM. In addition, the “Selectivity Kv1.2/Kv1.3” value on Kv1.2 is listed as 123. Besides, at Kv1.1, the “Selectivity Kv1.1/Kv1.3” value is listed as over 2200. The “Selectivity Kv1.6/Kv1.3” value at Kv1.6 is given as 707.

Broadly, the IC50 is the concentration that inhibits the measured activity by half.
